Assay [1] has as its system imatinib-resistant BCR-ABL mutants. To be noted: number of mutants of those tested; cited from earlier work.
Assay [2] has as its system secreted uPA protein in PC3 cells. In words: uPA protein ELISA assay of culture medium. To be noted: different doses, 24 h, per 50,000 viable cells. The class given is cell-based, human. An excerpt:
FIG. 3. PLAU gene expression and regulation by dasatinib analyzed at mRNA and protein levels. (A) Differential baseline expression of PLAU gene between resistant (R, in black) and sensitive (S, in red) cell lines. The X-values are the expression level in log2-scale. The resistant cell line expressing high level of PLAU was WPMY1 and the sensitive cell line expressing low level of PLAU was LNCaP. (B) Down-regulation of PLAU mRNA level by dasatinib-treatment in 5 sensitive cell lines. The cells were treated with 100 nM dasatinib (+D) or DMSO (Ctrl) for 48 hours. The p value was 0.048 in paired t-test, indicating a significant reduction of PLAU mRNA following dasatinib treatment. (C) Correlation between dasatinib-induced PLAU mRNA down-regulation with the sensitivity of cell lines to dasatinib. […] The amount of uPA protein secreted into the culture medium by 50,000 viable cells was assessed by ELISA assay. […]
Cell were seeded in 24-well plates at density of 25,000 cells/well. […] Total number of cells were also quantitated using a cell counter, and the number of viable cells were assessed with Trypan Blue. The amount of uPA protein in the supernatant was determined using the uPA ELISA kit (America Diagnostica, Stamford, Conn.), and the concentrations of uPA secreted by 50,000 viable cells into the medium were calculated.

In the case of `Cc1cn(-c2cc(NC(=O)c3ccc(C)c(Nc4nccc(-c5cccnc5)n4)c3)cc(C(F)(F)F)c2)cn1` [AMN107], the “imatinib-resistant BCR-ABL mutants against which significantly active” value in assay [1] is given as 32/33.

As to `CC(=O)O[C@H]1C(=O)[C@@]2(C)[C@H]([C@H](OC(=O)c3ccccc3)[C@]3(O)C[C@H](OC(=O)[C@H](O)[C@@H](NC(=O)c4ccccc4)c4ccccc4)C(C)=C1C3(C)C)[C@]1(OC(C)=O)CO[C@@H]1C[C@@H]2O` [TAXOL®], in assay [2], the “amount of uPA protein secreted into the growth medium” value is on record as “did not see a dose-dependent reduction”.

The values are drawn from patent US20100120788A1, “IDENTIFICATION OF POLYNUCLEOTIDES FOR […] OF COMPOUNDS THAT […] WITH AND/OR MODULATE PROTEIN TYROSINE KINASES AND/OR PROTEIN TYROSINE KINASE […] IN PROSTATE CELLS” (Bristol-Myers Squibb Company, priority 2007, published 2010).
